Laboratory results taken from patent US20060183800A1, “Methods and fluorinated compositions for treating amyloid-related diseases” (priority 2004, published 2006).

Molecular target: solubilized Aβ40 (Homo sapiens, UniProt P05067)
Assay: MS (mass spectrometry) binding assay for Aβ40
Procedure: The test compounds were synthesized and screened by mass spectrometry (“MS”) assays. The MS assay gives data on the ability of compounds to bind to proteins, in this example, to β-amyloid.
In the MS assay for Aβ40, the sample was prepared as an aqueous solution (adding 20% ethanol if necessary to solubilize in water), 200 μM of a test compound and 20 μM of solubilized Aβ40, or 400 μM of a test compound and 40 μM of solubilized Aβ40. The pH value of the sample was adjusted to 7.4 (±0.2) by addition of 0.1% aqueous sodium hydroxide. The solution was then analyzed by electrospray ionization mass spectrometry using a Waters ZQ 4000 mass spectrometer. The sample was introduced by direct infusion at a flow-rate of 25 μL/min within 2 hr. after sample preparation. The source temperature was kept at 70° C. and the cone voltage was 20 V for all the analysis. Data were processed using Masslynx 3.5 software. The MS assay gives data on the ability of compounds to bind to soluble Aβ.

Chain of solubilized Aβ40 (P05067 672-711 limits assumed): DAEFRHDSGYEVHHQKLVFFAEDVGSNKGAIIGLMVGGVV

O=S(=O)(O)CCCNCC(F)(F)F [3-[(2,2,2-trifluoroethyl)amino]-1-propanesulfonic acid]
binding to soluble Aβ40 (200 μM of test compound): 20-44% | binding to soluble Aβ40 (400 μM of test compound): 45-59%
